Results reported in paper PMC4822800, “Modifications of the 7-Hydroxyl Group of the Transthyretin Ligand Luteolin Provide Mechanistic Insights into Its Binding Properties and High Plasma Specificity” (PLoS ONE, 2016).
Read-outs that look alike come from different tables or passages of the source.

Key:
TTR [1] = biological target: T1, TTR (Homo sapiens, UniProt P02766); assay: Microscale thermophoresis (MST) binding to NT-647-labelled TTR; settings: 300 nM NT-647-labelled TTR, PBS, 5% DMSO, mean ± S.E.M. of three measurements, read-out: dissociation constant (Kd)
T1 construct: Expression of TTR was performed as described previously; made in house; host or cells: Escherichia coli BL21
Procedure: We used MST to measure the affinity between the different ligands and TTR. TTR was labelled with the Monolith NT protein labelling kit (Nanotemper Technologies, Germany) using the sulfhydryl-reactive red fluorescent dye NT-647 Maleimide according to the manufacturer’s instructions. Labelled TTR was kept at a constant concentration of 300 nM, and luteolin, 7-Cl-Lut and 7-MeO-Lut were serially diluted yielding 13, 16 and 12 respectively different concentrations ranging from 0.24 nM to 1 μM for luteolin, 0.24 nM to 8 μM for 7-Cl-Lut, and 0.61 nM to 1.25 μM for 7-MeO-Lut. Experiments were carried out in phosphate-buffered saline and 5% DMSO with a Monolith NT.115 instrument using standard-treated capillaries (Nanotemper Technologies, Germany). Fluorescence was detected for 5 s, and the laser was switched on for 30 s followed by fluorescence detection for another 5 s. The delay time between runs was set to 25 s. The LED power and the MST were set to 80% for all drugs. Kd values were determined using NTanalysis software (NanoTemper Technologies, Germany) by fitting the data representing the mean ± S.E.M. from three independent measurements to the Kd fit model.
In order to obtain binding affinities between the drugs and TTR, we employed microscale thermophoresis (MST), which is a technique based on the directed movement of molecules in a temperature gradient. This phenomenon depends on a variety of molecular properties such as size, charge, hydration shell, and conformation. The dissociation constant (Kd) for luteolin was determined to be 150 ± 70 nM, which is in accordance with the previously published value of 100 nM determined by isothermal titration calorimetry (Fig 3A).
Fig 3 Binding of luteolin, 7-Cl-Lut and 7-MeO-Lut to NT-647–labeled TTR. Various concentrations of the compounds were titrated against 300 nM of NT-647–labeled TTR. Kd values were determined by averaging three independent experiments (mean ± S.E.M.) using the NT analysis software. The thermophoresis signal was plotted against luteolin (A), 7-Cl-Lut (B) and 7-MeO-Lut (C) concentrations.

TTR in human plasma = biological target: T2, TTR in human plasma (Homo sapiens, UniProt P02766); assay: Urea-mediated denaturation gel-shift assay of TTR stabilization in human plasma (western blot of monomers); assay type: biochemical; settings: for IC50: 4 M urea, 18 h, 20°C, densitometry of the monomeric band, read-out: IC50 (half maximal inhibitory concentration of TTR dissociation into monomers); for stoichiometric excess relative to TTR in human plasma to achieve the same stabilizing effect as luteolin: TTR assumed 5 μM
T2 construct: Human plasma from a healthy donor; from tissue; host or cells: human plasma (healthy donor)
Procedure: We have recently developed an assay in which the relative stability as a function of drug concentration can be evaluated in complex solutions [21]. TTR is found within the human plasma, and it is thus of interest to analyze drug efficacy in TTR’s natural environment. The analysis was performed as described previously with some modifications. Human plasma from a healthy donor was centrifuged at 20,000 × g for 10 min. The plasma was filtered using a 0.45 μm syringe filter (Filtropur S, Nümbrecht, Germany). A solution of 1 M sodium phosphate buffer at pH 7.0 was added to a final concentration of 40 mM. […] The reactions were incubated for 2 h at 20°C. Denaturation was initiated by addition of 4 M urea, 40 mM sodium phosphate buffer pH 7.4, and 150 mM NaCl. The samples were incubated for 18 h at 20°C followed by separation by gel electrophoresis using tricine-based SDS-PAGE with 0.025% SDS in the running buffer and 0.2% SDS in the loading buffer. […] Gel electrophoresis was followed by western blotting using rabbit anti-TTR antibody (anti-prealbumin, DAKO, Denmark) followed by a horseradish peroxidase-labeled antibody (anti-rabbit HRP, GE Healthcare, Sweden). Blocking of nonspecific binding on the membrane and incubation of the antibodies were performed in 5% fat-free powdered milk containing 0.3% Tween-20. All washing steps were performed in 40 mM Tris, 150 mM NaCl, and 0.3% Tween-20. Bound antibodies were visualized on photographic film using enhanced chemiluminescence (ECL-prime, GE Healthcare, UK). […] The presence of monomers on the photographic film was quantified through a densitometric analysis using the ImageJ 1.48 software (National Institutes of Health, […], US), which also ensured that all analyses were performed within a linear range. The plasma concentration of TTR is approximately 5 μM [38], and this implies that a drug must be present at ≥5 μM to work effectively as a stabilizer. Here we used a recently developed urea-mediated denaturation assay to determine the drug concentration needed in plasma to obtain the half maximal inhibitory concentration (IC50). In the experiment, the dissociation of TTR into monomers is monitored by the appearance of a monomeric band on a western blot (Fig 8). The fraction of denaturation was quantified by densitometric analysis using ImageJ 1.48 software. […] Fig 8 Determination of IC50 for luteolin, 7-Cl-Lut and 7-MeO-Lut in human plasma. The drug’s ability to selectively stabilize TTR in plasma was evaluated using a urea denaturation assay. The dissociation of the TTR tetramer is indicated by the presence of a monomeric TTR band on a western blot. (A) Gel-shift assay of various concentrations of luteolin in human plasma. […] (C) Gel-shift assay of various concentrations of 7-MeO-Lut in human plasma.

[2] = Glucuronidation / depletion kinetics in human liver microsomes (UHPLC); assay type: in vitro ADME; settings: for half-life at 10 μM: female, pooled human liver microsomes, alamethicin-activated, 10 μM compound, 0.1 mg/mL human liver microsomes, 5 mM UDPGA, 37°C, one-phase exponential decay, read-out: half-life (t1/2); for metabolic stability relative to luteolin: human hepatic microsomes, glucuronidation by UGT enzymes
Procedure: Pooled female human liver microsomes (n = 10) were purchased from XenoTech (Lenexa, US) and stored at −80°C and rapidly thawed before use. The microsomes, 0.1 mg/mL, were activated by incubation with alamethicin (Santa Cruz Biotechnology, US), 50 μg/mL microsomal protein, in 0.1 M sodium phosphate buffer using a VWR Mini Shaker (Radnor, US) at 37°C and 550 rpm for 10 min. Luteolin, 7-Cl-Lut or 7-MeO-Lut was added to give a final concentration of 10 μM and 5% DMSO, and these were pre-incubated with the activated microsomes for 5 min at 37°C and shaking at 550 rpm. The reaction was initiated by addition of 5 mM uridine 5’-diphosphoglucuronic acid, (Santa Cruz Biotechnology, US). The incubation time ranged from 0 min to 5 h. The reactions were quenched by flash freezing and stored at −80°C. The microsomes were heat inactivated using a VWR UnoCycler (Radnor, US) for 5 min at 95°C. All experiments were repeated three times.
In order to calculate depletion kinetics, the percentage of the remaining drug was calculated by comparison with the initial quantity at 0 min. The half-life (t1/2) of luteolin, 7-Cl-Lut and 7-MeO-Lut was calculated using GraphPad Prism (GraphPad Software, Inc., US, version 5.0). Data were fitted to one-phase exponential decay: C=C0*exp(-K*t) (1) The half-life(t1/2)=0.693/K (2)
Microsome-treated samples were diluted in 50% DMSO. Analytical HPLC was performed using a Nexera UHPLC system (Shimadzu, US) connected to a diode array detector (SPP M20A). Samples were analyzed using a Nucleodur C18 HTec column (EC 150 × 4.6, 5 μm, Macherey-Nagel) with a flow rate of 1 mL/min. Aliquots of 20 μL of each sample were injected, and detection was performed at 345 nm. The mobile phase was composed of solvent A (H2O in 0.1% TFA) and solvent B (acetonitrile in 0.1% TFA). The binary gradient profile was as follows with solvent B as the reference: 0–2.5 min, 17% B; 2.5–7.5 min, 17–25% B; 7.5–15.5 min, 25–35% B; 15.5–20.5 min, 35–50% B; 20.5–25.5 min, 50–100% B; 25.5–30.5 min, 100% B; 30.5–31 min, 100–17% B; 31–35.5 min, 17% B. Before first injection, the column was equilibrated at 17% B for 5 min.
The metabolization of luteolin, 7-Cl-Lut and 7-MeO-Lut by the microsomes can be followed by the decrease in the substrate concentration over time. The data shown in Fig 7 were fitted to a single-component exponential decay model and the half-lives were determined using Eqs (1) and (2). Luteolin was metabolized about 3-fold faster than 7-Cl-Lut with half-lives of 16 ± 1 min and 52 ± 7 min, respectively.
Fig 7 Depletion profile of 10 μM luteolin (triangle), 7-Cl-Lut (square) and 7-MeO-Lut (diamond) after incubation in the presence of 0.1 mg/mL human liver microsomes for various times. Each time point represents the average of three independent samples (mean ± SD) acquired through plotting the integral of the corresponding peaks from the UHPLC analysis.

TTR [3] = biological target: T1, TTR; set-up: method as in ref 49 = [49]; PMID 22842046; doi:10.1016/j.jsb.2012.07.008; 49 Trivella DB , dos Reis CV , Lima LM , Foguel D , Polikarpov I ( 2012 ) Flavonoid interactions with human transthyretin: combined structural and thermodynamic analysis . J Struct Biol 180 : 143 – 15; settings: binding to TTR; cited from earlier work
TTR [4] = biological target: T1, TTR; set-up: method as in ref 37 = [37]; PMID 22842046; doi:10.1016/j.jsb.2012.07.008; 37 Trivella DBB , dos Reis CV , Lima LMTR , Foguel D , Polikarpov I ( 2012 ) Flavonoid interactions with human transthyretin: Combined structural and thermodynamic analysis . Journal of Structural Bio; settings: isothermal titration calorimetry; read-out: Kd, previously published value; cited from earlier work
[5] = set-up: method as in PMID 23556338; settings: in vivo persistence against metabolic activity; cited from earlier work

| Kd (TTR [1]) | IC50 (TTR in human plasma) | stoichiometric excess relative to TTR in human plasma to achieve the same stabilizing effect as luteolin (TTR in human plasma) | half-life at 10 μM [2] | metabolic stability relative to luteolin [2] | SMILES | times lower affinity compared to luteolin (TTR [3]) | Kd (TTR [4]) | half-life [5] |
| --- | --- | --- | --- | --- | --- | --- | --- | --- |
| 620 ± 150 nM | ~65000 nM | 13 fold | 52 ± 7 min | approximately 3 fold | O=c1cc(-c2ccc(O)c(O)c2)oc2cc(Cl)cc(O)c12 [7-Cl-Lut, 2-(3,4-dihydroxyphenyl)-5-hydroxy-7-chloro-4H-1-benzopyran-4-one] | – | – | – |
| 390 ± 40 nM | ~105000 nM | 21 fold | 36 ± 8 min | doubled | COc1cc(O)c2c(=O)cc(-c3ccc(O)c(O)c3)oc2c1 [7-MeO-Lut, 2-(3,4-dihydroxyphenyl)-5-hydroxy-7-methoxy-4H-1-benzopyran-4-one] | – | – | – |
| – | – | – | – | – | O=c1cc(-c2ccc(O)cc2)oc2cc(O)cc(O)c12 [apigenin] | 5 times | – | – |
| – | – | – | – | – | O=c1cc(-c2ccccc2)oc2cc(O)cc(O)c12 [chrysin] | 17 times | – | – |
| 150 ± 70 nM | ~5000 nM | – | 16 ± 1 min | – | O=c1cc(-c2ccc(O)c(O)c2)oc2cc(O)cc(O)c12 [luteolin] | – | 100 nM | around 8 hours |
